Experimental findings from patent US8993622B2, “Antiviral compounds” (Eirium AB, priority 2010, dated 2015) are described below.

For one series, the system named is Ad5. In words: microbe, parasite or virus in culture. In kind it is cell-based, human adenovirus. The conditions noted are these: for inhibition at 5 µM: A549, read-out: % Inh. at 5 μM; for inhibition at 15 µM: A549, read-out: % Inh. at 15 μM; for activity compared with A02 (inhibition of adenovirus replication): second generation inhibitors, Table 4.
The subject of series [1] is coxsackievirus A24 variant (CVA24v). In words: Coxsackievirus fluorescent focus assay in HCE cells. In kind it is cell-based. Also noted: key: +++: No visible fluorescence was observed; ++: some infected cells were detected. The conditions noted are these: 18 h. The procedure:
Approximately 2×10^5 human corneal epithelial (HCE) cells were plated in 24-well plates the day prior infection. On the day of infection the media was removed and was replaced with media containing 70 virus particles of CVA24v per cell and serial dilutions of compound 35j, ranging from 50- to 6.25 μM. After 18 h of incubation at 37° C. in 5% CO2, the cells were fixed using ice-cold 100% methanol for 5 min. Thereafter, the cells were incubated with a monoclonal mouse anti-VP1 structural protein antibody (clone 5-D8/1, DakoCytomation) diluted 1:200 in PBS, for 1 h in RT. The cells were then washed with PBS and incubated with FITC labeled anti-mouse secondary antibody (DakoCytomation), diluted 1:100 for 1 h, RT, in the dark. Further, unbound antibody was washed away in PBS and the cells were examined in fluorescent microscope.

A further series concerns cells. In words: Cellular toxicity of select compounds (% dead cells, CC50). The class given is cell-based.
Assay in series [2]: as above
Particulars: conclusions. The class given is cell-based.

Like-named read-outs stand apart in the source and are kept apart here.

By EC50 is commonly meant the concentration that produces a half-maximal response. A word on the CC50: it is the concentration at which the toxic effect on the cells reaches its halfway point. In the series with Ad5 (CC50/EC50), `O=C(Nc1cc(F)c(F)cc1C(=O)Nc1ccccc1C(=O)O)c1ccccc1F` [Compound 35j, 2-[4,5-difluoro-2-(2-fluorobenzoylamino)-benzoylamino]benzoic acid] gave a toxicity/activity selectivity index of 890. The EC50 with Ad5 (Human adenovirus sp., A549, read-out: EC50-value) was 0.3 µM; in the series with Ad5 (unidentified adenovirus, A549), 0.27 µM. The inhibition at 5 µM in the series on Ad5 (unidentified adenovirus) turned out to be 94 ± 3%. Moreover, the inhibition at 15 µM with Ad5 (unidentified adenovirus) is 93 ± 2%. Moreover, the “Relative inhibition of CVA24v” value is on record as “++” in series [1] (6.25 μM), “++” in series [1] (12.5 μM), “+++” in series [1] (25 μM) and “+++” in series [1] (50 μM). In the series on cells, the “Toxicity at 30 μM (% dead cells after 24 h)” value was determined as 6 ± 4%. The “Toxicity at 60 μM (% dead cells after 24 h)” value with cells came out at 16 ± 9%. Further, the CC50 in series [2] stood at 240 µM.

Take `O=C(Nc1ccccc1C(=O)Nc1ccccc1C(=O)O)c1ccccc1F` [Compound 17h, 2-[2-(2-Fluorobenzoylamino)-benzoylamino]benzoic acid]: the “activity compared with A02 (inhibition of adenovirus replication)” value with Ad5 is “statistically significantly higher activity than A02”. Besides, a half-maximal response in the series on Ad5 (unidentified adenovirus, A549) (EC50) required 2.3 µM. In addition, in the series on Ad5 (unidentified adenovirus), the inhibition at 5 µM stood at 96 ± 1% and the inhibition at 15 µM turned out to be 96 ± 1%. In addition, in the series on cells, the “Toxicity at 30 μM (% dead cells after 24 h)” value was 17 ± 9% and the “Toxicity at 60 μM (% dead cells after 24 h)” value is given as 29 ± 12%. For the same compound, the “cellular toxicity compared with A02” value with cells (Table 7) is “slightly more toxic than A02”.

In the case of `COc1ccc(C(=O)Nc2ccccc2C(=O)O)c(NC(=O)c2ccccc2F)c1` [Compound 35h, 2-[4-methoxy-2-(2-fluorobenzoylamino)-benzoylamino]benzoic acid], a half-maximal response in the series with Ad5 (unidentified adenovirus, A549) (EC50) required 1.5 µM. For the same compound, in the series with Ad5 (unidentified adenovirus), the inhibition at 5 µM stood at 92 ± 3% and the inhibition at 15 µM was 89 ± 6%. Besides, in the series with cells, the “Toxicity at 30 μM (% dead cells after 24 h)” value came to 10 ± 15% and the “Toxicity at 60 μM (% dead cells after 24 h)” value is reported as 18 ± 15%.

On to `O=C(O)c1ccccc1NC(=O)c1ccccc1NCc1ccccc1` [Compound 17g, 2-[2-(Benzylamino)benzoylamino]benzoic acid], for which the “activity compared with A02 (inhibition of adenovirus replication)” value in the series with Ad5 is “diminished but not abolished activity”. For the same compound, in the series on Ad5 (unidentified adenovirus, A549), the EC50 was found to be 11.4 µM. Also, in the series on Ad5 (unidentified adenovirus), the inhibition at 5 µM amounted to 44 ± 17% and the inhibition at 15 µM was found to be 79 ± 5%. Also, in the series with cells, the “Toxicity at 30 μM (% dead cells after 24 h)” value is 6 ± 10% and the “Toxicity at 60 μM (% dead cells after 24 h)” value was determined as 11 ± 13%.
